Drawing on ChEMBL document CHEMBL5244237, “Recent developments of small molecules targeting RNA m6A modulators” (Eur J Med Chem, 2020), this text covers IC50 for 4 compounds.

Each structure is given as a SMILES string.

The target of experiment [1] is T1, Alpha-ketoglutarate-dependent dioxygenase FTO (Homo sapiens, UniProt Q9C0B1). Put plainly: Inhibition of FTO (unknown origin) mediated m6A methylation by HPLC analysis.
Experiment [2] concerns MONO-MAC-6. The experiment is described as follows: Antiproliferative activity against human MONO-MAC-6 cells. Type of experiment: functional, cell-based.
For experiment [3], the target named is T1, Alpha-ketoglutarate-dependent dioxygenase FTO. Put plainly: Inhibition of full length human FTO expressed in Escherichia coli BL21(DE3) rosetta by HPLC analysis.
For experiment [4] the target is unchanged. Put plainly: Displacement of dm6A-containing ssDNA from truncated N-terminal his-tagged human FTO (31 residues) mediated demethylation activity expressed in Escherichia coli BL21(DE3) using ssDNA (5'-ATTGTCA(dm6A)CAGCAGA-FAM-3') as substrate by fluorescence polarization assay. (Polarisation of emitted light reports the rotation of a fluorescent probe.)

For experiment [5] the target is unchanged.
Description: Inhibition of FTO (unknown origin) (31 to 505 residues) by LC/MS analysis

The term IC50 denotes the concentration needed to halve the response being measured.

T1 sequence (Q9C0B1 whole entry): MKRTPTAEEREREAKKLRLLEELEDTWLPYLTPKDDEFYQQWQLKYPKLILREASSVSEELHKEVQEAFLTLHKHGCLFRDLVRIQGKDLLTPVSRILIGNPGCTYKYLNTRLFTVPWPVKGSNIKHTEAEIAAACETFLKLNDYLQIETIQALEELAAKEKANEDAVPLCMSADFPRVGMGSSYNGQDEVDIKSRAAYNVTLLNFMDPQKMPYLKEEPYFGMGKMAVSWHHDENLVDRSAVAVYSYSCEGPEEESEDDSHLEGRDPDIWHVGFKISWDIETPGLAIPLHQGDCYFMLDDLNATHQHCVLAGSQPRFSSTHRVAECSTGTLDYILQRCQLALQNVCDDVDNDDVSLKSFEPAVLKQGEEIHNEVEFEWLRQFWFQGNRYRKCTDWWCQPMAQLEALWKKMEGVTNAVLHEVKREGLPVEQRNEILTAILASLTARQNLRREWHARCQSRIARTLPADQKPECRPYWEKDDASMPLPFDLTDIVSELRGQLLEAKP

With `Cc1noc(C)c1-c1cc(Cl)c(Nc2ccccc2C(=O)NO)c(Cl)c1`, the IC50 in experiment [1] was determined as 2.6 µM; in experiment [2], 0.8 µM.

In the case of `O=C(O)c1ccnc(C(=O)NS(=O)(=O)c2ccc(C(F)(F)F)cc2)c1`, the midpoint of inhibition in experiment [3], the IC50, lay at 2.6 µM. For `Cc1ccc(Cl)c(Nc2ccccc2C(=O)O)c1Cl` [MECLOFENAMIC ACID], in experiment [4], the IC50 came to 17.4 µM.

For `C[C@@H]1C[C@H]2O[C@@H]2/C=C\C=C\C(=O)Cc2c(Cl)c(O)cc(O)c2C(=O)O1` [RADICICOL], the IC50 in experiment [5] came to 16 µM.
